In PMC10652874, “Investigation into the mechanism of action of the antimicrobial peptide epilancin 15X” (Frontiers in Microbiology, 2023):
Where two headings read alike, the source gives them in different places. Where no end group is shown, it is not given here.

Columns and labels:
[1] = test system: LiaRS response in B. subtilis BSF2470; assay: LiaRS disk diffusion reporter assay (β-galactosidase, X-Gal); assay type: cell-based, Bacillus subtilis; conditions: 37°C overnight
Description: The LiaRS response was determined via disk diffusion as described previously ([Mascher et al., 2004]). Briefly, B. subtilis strain BSF2470 was grown in LB supplemented with erythromycin (1 μg/mL) overnight at 37°C with shaking. A total of 20 μL of overnight culture was mixed with 100 μL of 20 mg/mL X-Gal (dissolved in DMF) and 5 mL of 0.7% soft LB agar then poured onto a 1.5% LB agar base. The plates were allowed to cool and dry at room temperature for 20 min. The desired molecule was either spotted on a filter paper disk and placed on top of the agar or directly spotted on the agar. The following molecules were tested: ampicillin, 0.5 μL on filter disk, 1 μL directly spotted, 100 mg/mL; compound 1771/LtaS-IN-1, 4 μL, 20 mM (dissolved in DMSO); epilancin 15X, 4 μL, 5 mM; vancomycin, 1 μL, 100 mg/mL; nisin, 4 μL, 2 mM; bacitracin, 4 μL on filter disk, 5 μL directly spotted, 100 mg/mL; water, 5 μL; magainin 2, 10 μL, 1 mM; melittin, 10 μL, 1 mM. The plate was incubated at 37°C overnight. After overnight incubation, the plate was imaged. Compound 1771 (CS-0114233) was purchased from ChemScene LLC.
To investigate the effect of epilancin 15X on the cell envelope, we employed the two-component LiaRS reporter system in B. subtilis (lipid II cycle interfering antibiotic response regulator and sensor; [Mascher et al., 2004]). Briefly, the LiaRS assay is a disk diffusion assay used to screen for the ability of compounds to induce β-galactosidase expression in engineered B. subtilis BSF2470 ([Mascher et al., 2004]). Molecules that produce a blue ring around the edge of the zone of growth inhibition are believed to interfere with the lipid II cycle ([Hachmann et al., 2009]). […] The compound 1771, also called LtaS-IN-1, inhibits lipoteichoic acid (LTA) synthesis ([Richter et al., 2013]) and to the best of our knowledge has not been tested in the LiaRS assay.

[2] = test system: LiaRS response in B. subtilis BSF2470; conditions: cited from earlier work
From the text: To investigate the effect of epilancin 15X on the cell envelope, we employed the two-component LiaRS reporter system in B. subtilis (lipid II cycle interfering antibiotic response regulator and sensor; [Mascher et al., 2004]). Briefly, the LiaRS assay is a disk diffusion assay used to screen for the ability of compounds to induce β-galactosidase expression in engineered B. subtilis BSF2470 ([Mascher et al., 2004]). Molecules that produce a blue ring around the edge of the zone of growth inhibition are believed to interfere with the lipid II cycle ([Hachmann et al., 2009]). Most membrane disrup ...

S. carnosus TM300 [3] = assay: Membrane permeability study with propidium iodide (flow cytometry); assay type: cell-based, Staphylococcus carnosus; conditions: S. carnosus TM300, 20 min exposure, 0.5x, 1x, 4x MIC, n = 3
Description: (§1) Cultures of S. carnosus TM300 and B. subtilis BSF2470 were grown to OD600 1.0 and diluted to OD600 0.1 in fresh BHI or LB medium, respectively. The culture was then combined with a final concentration of 25 μM PI (ThermoFisher P3566), 1 mM HEPES, and 1 mM glucose. […] Another two tubes were prepared without antibiotic treatment as controls. The culture was analyzed with a BD Biosciences LSR II flow cytometer for S. carnosus and a BD Biosciences LSRFortessa for B. subtilis using excitation at 488 nm with an argon laser and measurement of emission through a band-pass filter at 695/40 nm. A minimum of 30,000 events were detected for each sample. The experiment was repeated three times, and the mean PI uptake value was determined. The results were calibrated such that the mean PI uptake from the 4x MIC nisin-treated cell culture was set as 100% PI uptake.

B. subtilis BSF2470 = assay: as above; assay type: cell-based, Bacillus subtilis; conditions: B. subtilis BSF2470, 20 min exposure, 0.5x, 1x, 4x MIC, n = 3
Description: as §1

S. carnosus TM300 [4] = assay: MIC determination in 96-well microtiter plate; assay type: cell-based, Staphylococcus carnosus; conditions: BHI, 37°C, 10^5 CFU/mL, OD600 after 18 h
Description: (§2) MIC determination was performed in a 96-well microtiter plate as described previously ([Wu et al., 2019]). Sensitive bacterial culture was grown in the appropriate medium (BHI for S. carnosus; LB for B. subtilis) at 37°C overnight. The culture was diluted to 10^5 CFU/mL in medium in each well. Epilancin 15X or its analog was dissolved in water and serially diluted to obtain final concentrations of 20, 10, 5, 2.5, 1.25, 0.625, 0.3125, 0.156, 0.078, 0.039, 0.019, and 0.009 μM. OD600 readings were obtained after 18 h using a Synergy H4 Hybrid Multi-Mode Microplate Reader (BioTeK). Cell-free untreated medium, and untreated cell culture were used as negative controls. The MIC of nisin against B. subtilis BSF2470 was determined following the same methods.

[5] = Liposome leakage assay using flow cytometry (HaloTag / AF488 ligand); assay type: biochemical; conditions: 1 μM peptide, 37°C, 1 h
S. carnosus TM300 [6] = assay: Bright field (Airyscan) microscopy; assay type: cell-based, Staphylococcus carnosus; conditions: S. carnosus TM300, 0.5 MIC
S. carnosus TM300 [7] = assay: Agar diffusion bioactivity assay with lipids in flanking wells; assay type: cell-based, Staphylococcus carnosus; conditions: S. carnosus TM300 on BHI agar, overnight
Description: For agar diffusion antimicrobial activity assays, the autoclaved 1.5% agar was prepared in the appropriate medium and cooled in a 40°C water bath for 15 min. A total of 50 μL overnight culture of the sensitive strain was added to the agar and kept in the water bath. A total of 25 mL seeded agar was poured into a sterile OmniTray (Nunc) and allowed to solidify at room temperature for 30 min. An additional 35 mL of seeded agar was poured over the lower solidified agar layer. A sterile 96-well PCR plate was placed in the molten agar upper layer, and the agar was allowed to solidify at 25°C for 30 min. After sufficient solidification, the 96-well PCR plate was removed. Then 20 μL volume of each peptide was dispensed into the wells. Plates were left at 25°C for 30 min until the wells were dried, and the plates were incubated at 37°C overnight. The antibacterial activity was determined by the presence or absence of growth inhibition.
Figure S5. (A) Zones of growt h inhibition of epilancin 15X a nd nisin A against S. carnosus TM30 0 grown on BHI agar plates. The indicated amounts of antibiotics were placed in the well shown in the center of the zone of inhibition. […]

[8] = test system: B. subtilis BSF2470 (1A980); assay: MIC determination in 96-well microtiter plate; assay type: cell-based, Bacillus subtilis; conditions: LB, 37°C, 10^5 CFU/mL, OD600 after 18 h
Description: as §2

## O=C(COC(=O)Cc1coc2ccc3ccccc3c12)Nc1nnc(-c2ccccc2)o1 [LtaS-IN-1]
[1]
  LiaRS response (blue ring at the edge of the zone of inhibition): did not induce a blue zone

## CC1(C)S[C@@H]2[C@H](NC(=O)[C@H](N)c3ccccc3)C(=O)N2[C@H]1C(=O)O [ampicillin]
[1]
  LiaRS response (blue ring at the edge of the zone of inhibition): did not induce a LiaRS response

## CC[C@@]1([C@@H]2O[C@@H]([C@H]3O[C@@](O)(CO)[C@H](C)C[C@@H]3C)C[C@@H]2C)CC[C@H]([C@]2(C)CC[C@]3(C[C@H](O)[C@@H](C)[C@@H]([C@@H](C)[C@@H](OC)[C@H](C)C(=O)O)O3)O2)O1 [monensin]
[2]; ref Wex et al., 2021
  LiaRS response: do not induce a LiaRS response

## CN[C@H](CC(C)C)C(=O)N[C@H]1C(=O)N[C@@H](CC(N)=O)C(=O)N[C@H]2C(=O)N[C@H]3C(=O)N[C@H](C(=O)N[C@H](C(=O)O)c4cc(O)cc(O)c4-c4cc3ccc4O)[C@H](O)c3ccc(c(Cl)c3)Oc3cc2cc(c3O[C@@H]2O[C@H](CO)[C@@H](O)[C@H](O)[C@H]2O[C@H]2C[C@](C)(N)[C@H](O)[C@H](C)O2)Oc2ccc(cc2Cl)[C@H]1O [vancomycin]
[1]
  LiaRS response (blue ring at the edge of the zone of inhibition): induce a LiaRS response

## Bacitracin
[1]
  LiaRS response (blue ring at the edge of the zone of inhibition): induce a LiaRS response

## colistin
[2]; ref Wex et al., 2021
  LiaRS response: do not induce a LiaRS response

## magainin 2
[1]
  LiaRS response (blue ring at the edge of the zone of inhibition): did not induce a LiaRS response

## melittin
[1]
  LiaRS response (blue ring at the edge of the zone of inhibition): did not induce a LiaRS response

## nisin: lantibiotic, lipid II binding pore former, positive control (ITSISLCTPGCKTGALMGCNMKTATCHCSIHVSK; not fully specified (some residues, bridges); cysteine pairing not given here; UniProt P13068 24-57, looked up) [reference compound]
S. carnosus TM300 [3]
  PI uptake (membrane disruption): more substantial
B. subtilis BSF2470
  PI uptake (membrane disruption): more substantial
S. carnosus TM300 [4]
  MIC: 0.5 µM
[5]; POPC-cholesterol liposomes with 0.1% lipid II
  fluorescence signal (pore formation): substantial increase in fluorescence signal
[5]; POPC-cholesterol liposomes without lipid II
  fluorescence signal (pore formation) compared to buffer control: no increase in fluorescence signal
[1]
  LiaRS response (blue ring at the edge of the zone of inhibition): induce a LiaRS response
S. carnosus TM300 [6]
  aggregation phenotype of cells (brightfield): Aggregation was not observed
S. carnosus TM300 [7]
  antagonism of bioactivity (zone of growth inhibition) by purified S. aureus LTA: not
[8]
  MIC: 0.625 µM

## polymyxin
[2]; ref Wex et al., 2021
  LiaRS response: do not induce a LiaRS response

## tunicamycin
[2]; B. subtilis, ref Mascher et al., 2004
  LiaRS response: positive LiaRS response
